Assay [1] has as its target Delta-type opioid receptor (Rattus norvegicus, UniProt P33533). In words: Inhibition of binding of [3H]-DPDPE to opioid receptor delta 1 from rat brain membrane.
Another assay concerns the target Mu-type opioid receptor (Rattus norvegicus, UniProt P33535). The assay can be described thus: Inhibition of binding of [3H]DAMGO to opioid receptor mu 1 from rat brain membrane.

The structures appear in SMILES notation. pKi: −log10 of the molar value.

Sequence of Delta-type opioid receptor (P33533 whole entry): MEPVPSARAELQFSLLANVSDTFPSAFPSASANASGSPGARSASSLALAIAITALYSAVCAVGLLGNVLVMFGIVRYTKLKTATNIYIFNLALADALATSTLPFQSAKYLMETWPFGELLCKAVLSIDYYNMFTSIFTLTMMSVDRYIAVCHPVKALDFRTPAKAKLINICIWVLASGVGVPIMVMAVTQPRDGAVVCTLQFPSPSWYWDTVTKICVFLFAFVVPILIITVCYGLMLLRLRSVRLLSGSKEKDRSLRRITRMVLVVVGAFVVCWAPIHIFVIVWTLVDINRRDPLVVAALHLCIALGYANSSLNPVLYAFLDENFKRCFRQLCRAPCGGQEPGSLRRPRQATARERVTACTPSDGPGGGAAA
Sequence of Mu-type opioid receptor (P33535 whole entry): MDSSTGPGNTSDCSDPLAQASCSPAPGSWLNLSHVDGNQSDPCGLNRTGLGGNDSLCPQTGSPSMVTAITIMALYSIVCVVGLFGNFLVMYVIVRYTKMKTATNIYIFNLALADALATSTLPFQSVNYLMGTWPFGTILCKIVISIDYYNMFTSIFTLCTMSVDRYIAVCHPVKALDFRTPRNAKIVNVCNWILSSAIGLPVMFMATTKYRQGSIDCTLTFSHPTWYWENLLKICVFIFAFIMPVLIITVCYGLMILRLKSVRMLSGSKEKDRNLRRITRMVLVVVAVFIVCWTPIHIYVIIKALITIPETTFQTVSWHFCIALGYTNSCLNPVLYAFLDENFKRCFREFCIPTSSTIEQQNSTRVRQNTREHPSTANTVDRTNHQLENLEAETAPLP

A word on the pKi: it is the negative decadic logarithm of the Ki, by convention in mol/L. Turning to `CCN(CC)C(=O)c1ccc(/C(=N/c2ccccc2Cl)N2CCN(CCOC)CC2)cc1`, the pKi in assay [1] was 7.27; on Mu-type opioid receptor it was under 5.00.
For the compound `CCN(CC)C(=O)c1ccc(/C(=N/c2ccccc2)N2CCN(CCc3cccs3)CC2)cc1`, the figures for the pKi (in assay [1]; on Mu-type opioid receptor) were 6.12 and under 5.00, respectively.
For `CCN(CC)C(=O)c1ccc(/C(=N/c2ccccc2Cl)N2CCN(CCc3cccs3)CC2)cc1`, in that order: 7.02 and under 5.00.
For `CCN(CC)C(=O)c1ccc(/C(=N/c2ccccc2C(F)(F)F)N2CCN(CCc3ccccc3)CC2)cc1`, in that order: 6.26 and 6.00.
For `CCCN1CCN(/C(=N\c2ccccc2Cl)c2ccc(C(=O)OC)cc2)CC1`, in that order: 7.06 and 5.68.
`CCN1CCN(/C(=N\c2cc(Cl)cc(Cl)c2)c2ccc(C(=O)N(CC)CC)cc2)CC1`: the values for the pKi (in assay [1]; at Mu-type opioid receptor) were 6.56 and under 6.00, respectively.
On to `CCN1CCN(/C(=N\c2ccccc2)c2ccc(C(=O)N(CC)CC)cc2)CC1`, for which the pKi in assay [1] was 7.80; at Mu-type opioid receptor, 6.00.
`CCN1CCN(/C(=N\c2cccc(Br)c2)c2ccc(C(=O)N(CC)CC)cc2)CC1`: the pKi in assay [1] was 7.24; at Mu-type opioid receptor, under 5.00.
In the same order, the values of `CCN1CCN(/C(=N\c2ccccc2F)c2ccc(C(=O)N(CC)CC)cc2)CC1` are 6.93 and under 6.00.
For `C=CCN1CCN(/C(=N\c2ccccc2)c2ccc(C(=O)N(CC)CC)cc2)CC1`, in that order: 6.07 and 6.00.
For the compound `C=CCN1C[C@H](C)N(/C(=N\c2ccccc2)c2ccc(C(=O)OC)cc2)C[C@H]1C`, in assay [1], the pKi is 6.39.
`CCN(CC)C(=O)c1ccc(/C(=N/c2ccccc2)N2CCCN(CCc3ccccc3)CC2)cc1`: the values for the pKi (in assay [1]; on Mu-type opioid receptor) were 6.27 and 6.40, respectively.
In the same order, the values of `C=CCN1CCN(/C(=N\c2ccccc2Cl)c2ccc(C(=O)N(CC)CC)cc2)CC1` are 7.69 and 5.12.
In the case of `CCN1CCN(/C(=N\c2ccccc2Cl)c2ccc(C(=O)N(CC)CC)cc2)CC1`, the pKi in assay [1] is 7.04; on Mu-type opioid receptor, under 6.00.
In the same order, the values of `CCN(CC)C(=O)c1ccc(/C(=N/c2ccccc2C(F)(F)F)N2CCN(CCOC)CC2)cc1` are 7.64 and 5.53.
For `CCCN1CCN(/C(=N\c2cccc(Cl)c2)c2ccc(C(=O)N(CC)CC)cc2)CC1`, in that order: 6.75 and 5.02.
For `C=CCN1CCN(/C(=N\c2cccc(Cl)c2)c2ccc(C(=O)N(CC)CC)cc2)CC1`, in that order: 6.80 and under 5.00.
As to `CCCN(CCC)C(=O)c1ccc(/C(=N/c2ccccc2OC)N2CCN(CC)CC2)cc1`, the pKi in assay [1] was 5.99; at Mu-type opioid receptor it was 5.41.
In the same order, the values of `COC(=O)c1ccc(/C(=N/c2ccccc2Cl)N2CCCN(CCc3ccccc3)CC2)cc1` are 7.00 and 6.71.
For the compound `CCN(CC)C(=O)c1ccc(/C(=N/c2ccccc2)N2CCN(Cc3ccccc3)CC2)cc1`, the pKi in assay [1] was 6.67; at Mu-type opioid receptor, under 5.00.
In the same order, the values of `CCCN(CCC)C(=O)c1ccc(/C(=N/c2ccccc2Cl)N2CCN(CC)CC2)cc1` are 6.53 and 5.41.
`CCN(CC)C(=O)c1ccc(/C(=N/c2ccccc2C(F)(F)F)N2CCN(Cc3ccccc3)CC2)cc1`: the pKi in assay [1] was 8.91; on Mu-type opioid receptor it was 5.92.
Consider `C=CCN1C[C@H](C)N(/C(=N\c2ccccc2)c2ccc(C(=O)N(CC)CC)cc2)C[C@H]1C`, for which the pKi in assay [1] was 6.77.
As for `CCN(CC)C(=O)c1ccc(/C(=N/c2ccccc2Cl)N2CCN(Cc3ccccc3)CC2)cc1`, the pKi in assay [1] is 7.93; on Mu-type opioid receptor, under 5.00.
As to `CCN1CCN(/C(=N\c2cccc(F)c2)c2ccc(C(=O)N(CC)CC)cc2)CC1`, the results for the pKi (in assay [1]; at Mu-type opioid receptor) were 7.23 and under 5.00, respectively.
For `COC(=O)c1ccc(/C(=N/c2ccccc2)N2CCCN(CCc3ccccc3)CC2)cc1`, in that order: 6.09 and 6.63.
For `CCN1CCN(/C(=N\c2cccc(Cl)c2)c2ccc(C(=O)N(CC)CC)cc2)CC1`, in that order: 7.20 and under 6.00.
For `CCN(CC)C(=O)c1ccc(/C(=N/c2ccc(Cl)cc2)N2CCN(Cc3ccccc3)CC2)cc1`, in that order: 6.85 and under 5.00.
Turning to `CCN(CC)C(=O)c1ccc(/C(=N/c2ccccc2Cl)N2CCCN(CCc3ccccc3)CC2)cc1`, the results for the pKi (in assay [1]; on Mu-type opioid receptor) were 7.53 and 6.21, respectively.
Turning to `CCN1CCN(/C(=N\c2ccccc2Cl)c2ccc(C(=O)OC)cc2)CC1`, the pKi was 6.65 in assay [1] and under 6.00 at Mu-type opioid receptor.
